Data published in US20110098352A1, “N,N-DISUBSTITUTED AMINOALKYLBIPHENYL ANTAGONISTS OF PROSTAGLANDIN D2 RECEPTORS” (AMIRA PHARMACEUTICALS, INC., priority 2008, published 2011).

Tests used:
human DP1 receptor = target: T1, human DP1 receptor (Homo sapiens, UniProt Q13258); assay: DP1 radioligand membrane binding assay using [3H]BWA868C; conditions: [3H]BWA868C binding, human platelet membranes; read-out: hDP1
T1 construct: tissue Biological Specialty Corporation; host or cells: human platelets, membranes
T1 sequence (Q13258 1-359): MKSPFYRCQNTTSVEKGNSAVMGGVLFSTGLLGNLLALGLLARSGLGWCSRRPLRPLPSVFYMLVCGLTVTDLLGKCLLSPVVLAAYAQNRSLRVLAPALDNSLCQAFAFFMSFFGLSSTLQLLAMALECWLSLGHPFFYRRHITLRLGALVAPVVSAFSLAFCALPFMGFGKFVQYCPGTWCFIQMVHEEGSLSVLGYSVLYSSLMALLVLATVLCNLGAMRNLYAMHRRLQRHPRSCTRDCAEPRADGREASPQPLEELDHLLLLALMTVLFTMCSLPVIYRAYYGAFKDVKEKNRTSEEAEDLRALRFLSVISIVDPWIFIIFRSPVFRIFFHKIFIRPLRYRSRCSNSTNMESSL

human DP2 receptor = target: T2, human DP2 receptor (Homo sapiens, UniProt Q9Y5Y4); assay: DP2/CRTH2 radioligand binding assay using [3H]PGD2; conditions: [3H]PGD2 binding, membranes of HEK293 cells expressing recombinant human DP2; read-out: hDP2
T2 construct: expressed in transfected cells
T2 sequence (Q9Y5Y4 1-395): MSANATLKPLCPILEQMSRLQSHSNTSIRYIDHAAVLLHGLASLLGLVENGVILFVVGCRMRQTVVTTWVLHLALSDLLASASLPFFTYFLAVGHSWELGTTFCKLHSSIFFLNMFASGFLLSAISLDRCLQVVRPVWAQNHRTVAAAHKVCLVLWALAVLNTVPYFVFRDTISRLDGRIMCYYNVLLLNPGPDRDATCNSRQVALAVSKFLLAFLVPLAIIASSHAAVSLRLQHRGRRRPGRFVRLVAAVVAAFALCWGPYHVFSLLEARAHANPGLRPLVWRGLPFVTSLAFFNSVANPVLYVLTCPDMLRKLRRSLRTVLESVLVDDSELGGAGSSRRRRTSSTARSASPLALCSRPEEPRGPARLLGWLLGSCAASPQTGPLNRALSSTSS
How it was run: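 HEK293 membranes with stable recombinant human DP2, incubated with 1 nM [3H]PGD2 and compound 60 min at room temperature in pH 7.4 HEPES/MnCl2/EDTA buffer, with or without 0.2% human serum albumin.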

[1] = target: T3, recombinant human CRTH2 receptor (Homo sapiens, UniProt Q9Y5Y4); assay: GTPγS binding assay; assay type: biochemical; conditions: +HSA; CHO cell membranes, 80 nM PGD2; read-out: hDP2 GTPγS μM (+HSA)
T3 construct: expressed in transfected cells
T3 sequence (Q9Y5Y4 1-395): T2 sequence (Q9Y5Y4 1-395)
Experimental: The ability of a compound to inhibit binding of GTP to DP2 is assessed via a membrane GTPγS assay. CHO cells stably expressing the recombinant human CRTH2 receptor are resuspended in 10 mM Hepes, 7.4 containing 1 mM DTT, lysed and centrifuged at 75,000×g to pellet the membranes. The membranes are resuspended in 10 mM Hepes, 7.4 containing 1 mM DTT and 10% glycerol. […] The reactions are terminated by rapid filtration through Whatman GF/B glass fibre filter plates. The filter plates are washed 3 times with 1 ml cold Assay Buffer and dried. Scintillant is then added to the plates and the radioactivity retained on the filters is determined on a Packard TopCount (Perkin Elmer). Specific binding is determined as total radioactive binding minus non-specific binding in the absence of the ligand (80 nM PGD2). IC50s were determined using Graphpad prism analysis of drug titration curves.

SMILES	IC50 (human DP1 receptor)	IC50 (human DP2 receptor)	IC50 [1]
CCN(Cc1cc(C(F)(F)F)ccc1-c1cc(CC(=O)O)ccc1OC)C(=O)COC [Compound 1-46, (2′-{[Ethyl-(2-methoxy-acetyl)-amino]-methyl}-6-methoxy-4′-trifluoromethyl-biphenyl-3-yl)-acetic acid]	> 1 µM	< 0.3 µM	< 0.3 µM
CC(=O)N(Cc1cc(C(F)(F)F)ccc1-c1cc(CC(=O)O)ccc1F)CC(F)(F)F [Compound 1-11, (2′-{[Acetyl-(2,2,2-trifluoro-ethyl)-amino]-methyl}-6-fluoro-4′-trifluoromethyl-biphenyl-3-yl)-acetic acid]	> 1 µM	< 0.3 µM	< 0.3 µM
CCN(Cc1cc(C(F)(F)F)ccc1-c1cc(CC(=O)O)ccc1OC)C(=O)OC(C)c1ccc(Cl)cc1 (stereo not drawn) [Compound 1-44, [2′-({[1-(4-Chloro-phenyl)-ethoxycarbonyl]-ethyl-amino)-methyl)-6-methoxy4′-trifluoromethyl-biphenyl-3-yl]-acetic acid]	> 1 µM	< 0.3 µM	< 0.3 µM
CCN(Cc1cc(C(F)(F)F)ccc1-c1cc(CC(=O)O)ccc1OC)C(=O)C(C)Oc1ccccc1 (stereo not drawn) [Compound 1-45, (2′-{[Ethyl-(2-phenoxy-propionyl)-amino]-methyl}-6-methoxy-4′-trifluoromethyl-biphenyl-3-yl)-acetic acid]	> 1 µM	< 0.3 µM	< 0.3 µM
COc1ccc(CC(=O)O)cc1-c1ccc(C(F)(F)F)cc1CN(C(C)=O)C1CCCC1 [Compound 1-31, {2′-[(Acetyl-cyclopentyl-amino)-methyl]-6-methoxy-4′-trifluoromethyl-biphenyl-3-yl}-acetic acid]	> 1 µM	< 0.3 µM	< 0.3 µM
